Each structure is given as a SMILES string. Where two headings read alike, the source gives them in different places. Bounds are passed on as bounds.

Experimental findings from publication PMC6943434, “Novel Homo-Bivalent and Polyvalent Compounds Based on Ligustrazine and Heterocyclic Ring as Anticancer Agents” (Molecules, 2019) are described below.

Assay [1] has as its system Hep G2 (hepatocarcinoma cell line). Briefly: MTT cell viability assay, Hep G2. It counts as cell-based. Particulars: Homo sapiens, HepG2, 48 h, read-out: Antiproliferative Activity IC50 ± SEM, Hep G2. The method, then:
(§1) The tested cells were obtained from Shanghai Institute of Biochemistry and Cell Biology of the Chinese Academy of Sciences (Shanghai, China). HeLa and Hep G2 cell lines were cultured in Dulbecco’s modified Eagle’s medium (DMEM; gibco, Life Technologies, Carlsbad, CA, USA) supplemented with 10% fetal bovine serum (FBS; Biological Industries), 100 U/mL penicillin-streptomycin (PS; gibco, Life Technologies, Carlsbad, CA, USA). MCF-7 and A549 cell lines were maintained in RPMI-1640 media (gibco, Life Technologies, Carlsbad, CA, USA) supplemented with 10% FBS and 100 U/mL PS. FaDu cell lines were cultured in minimum essential medium (MEM; Gibco, Life Technologies, Carlsbad, CA, USA) supplemented with 10% FBS and 100 U/mL PS. MCF 10A cell lines were maintained in Mammary MEGM kit (Lonza/Clonetics) supplemented with 100 ng/mL cholera toxin (Sigma, Shanghai, China). Cell lines were grown at 37 °C in a humidified atmosphere of 5% CO2.
(§2) The growth-inhibitory effects against HeLa, Hep G2, MCF-7, FaDu, and A549 cancer cells and normal cell lines MCF 10A were determined by MTT assay. […] Cells were seeded in 96 well plates at a density of 1 × 10^4 cells per well and incubated for 24 h at 37 °C in a humidified atmosphere of 5% CO2. The cells were then incubated with various concentrations of drugs for 48 h in a 5% CO2 incubator at 37 °C. After treatment with 1 mg/mL 3-(4,5-dimethylthiazol-2-yl)-2,5-diphenyltetrazolium bromide (MTT) solution for 4 h, the formazan crystals were dissolved in 100 µL DMSO in each well. Plates were read on a microplate reader (Thermo Varioskan Flash 3001) at 490 nm. The experiment was performed in triplicate. The inhibitory concentration at 50% (IC50) was calculated based on concentration-inhibition relationships via regression using SPSS software (Version 17.0).
(Tetrazolium dyes change colour on reduction, which living cells bring about.)

Assay [2] deals with MCF-7 (breast cancer cell line). The assay is described as follows: MTT cell viability assay, MCF-7. Particulars: Homo sapiens, MCF7, 48 h, read-out: Antiproliferative Activity IC50 ± SEM, MCF-7. It counts as cell-based. The method, then: as §1, §2
Assay [3] deals with FaDu (head and neck squamous carcinoma cell line). The assay is described as follows: MTT cell viability assay, FaDu. In kind it is cell-based, human. Particulars: for IC50: 48 h, MTT; for SI: selectivity index: SI = IC50 (MCF 10A)/IC50 (FaDu). The method, then: as §1, §2
Assay [4] has as its system HeLa (cervical cancer cell line). Briefly: MTT cell viability assay, HeLa. It counts as cell-based. Particulars: Homo sapiens, 48 h, read-out: Antiproliferative Activity IC50 ± SEM, HeLa. The method, then:
as §1, §2

The test system of assay [5] is MCF 10A (normal mammary epithelial cell). Briefly: MTT cell viability assay, MCF 10A. In kind it is cell-based. Particulars: Homo sapiens, 48 h, normal cells, read-out: Antiproliferative Activity IC50 ± SEM, MCF 10A.
For assay [6], the system named is A549 (epithelial cancer cell line). The assay is described as follows: MTT cell viability assay, A549. It counts as cell-based. Particulars: Homo sapiens, 48 h, read-out: Antiproliferative Activity IC50 ± SEM, A549. The method, then: as §1, §2
[7] abbreviates: Homo sapiens, FaDu, read-out: Antiproliferative Activity IC50 ± SEM, FaDu.
Where [8] appears, read: read-out: Antiproliferative Activity IC50 ± SEM, FaDu.

On to `Cc1nc(C)c(C)nc1C` [TMP, 2,3,5,6-tetramethylpyrazine, reference compound], for which the 50% inhibitory concentration (IC50) – broadly, the midpoint of a concentration-inhibition curve – in assay [1] was over 100 µM; in assay [2] it was over 100 µM; in assay [3] (setting [7]), over 100000 nM; in assay [4], over 100 µM; in assay [5] it was over 100 µM; in assay [6] it was over 100 µM.

Turning to `Nc1cccc(C(=O)NCCCCCCCCCCNC(=O)c2cccc(N)c2)c1` [Compound 32e, N,N′-(Decane-1,10-Diyl)bis(3-Aminobenzamide)], the half-maximal inhibitory concentration (IC50) in assay [1] was over 20 µM; in assay [2], over 20 µM; in assay [3] (setting [7]), over 20000 nM; in assay [4] it was over 20 µM; in assay [5], over 20 µM; in assay [6], over 20 µM.

On to `O=C(/C=C/c1ccccc1)NCCCCCCCCCCCCNC(=O)/C=C/c1ccccc1` [Compound 9f, (2E,2′E)-N,N′-(Dodecane-1,12-Diyl)Bis(3-Phenylacrylamide)], for which the 50% inhibitory concentration (IC50) in assay [1] was over 20 µM; in assay [2], over 20 µM; in assay [3] (setting [7]), 27 ± 2 nM; in assay [4] it was over 20 µM; in assay [5], over 20 µM; in assay [6], over 20 µM. The “SI: selectivity index” value in assay [3] is on record as over 740.74.

For the molecule `COc1cc(/C=C/C(=O)NCCCCCCCCCCNC(=O)/C=C/c2cc(OC)c(OC)c(OC)c2)cc(OC)c1OC` [Compound 29e, (2E,2′E)-N,N′-(Decane-1,10-Diyl)Bis(3-(3,4,5-Trimethoxyphenyl)Acrylamide)], the concentration for half-maximal inhibition (IC50) was over 20 µM in assay [1]; over 20 µM in assay [2]; 5070 ± 461 nM in assay [3] (setting [7]); over 20 µM in assay [4]; over 20 µM in assay [5]; over 20 µM in assay [6]. The “SI: selectivity index” value in assay [3] was over 3.95.

As to `Cc1nc(C)c(C(=O)NCCCCCCCCNC(=O)c2nc(C)c(C)nc2C)nc1C` [Compound 8d, N,N′-(Octane-1,8-Diyl)Bis(3,5,6-Trimethylpyrazine-2-Carboxamide)], the IC50 in assay [1] is over 20 µM; in assay [2] it was 0.48 ± 0.003 µM; in assay [3] (setting [7]), 110 ± 30 nM; in assay [4], 3.31 ± 0.14 µM; in assay [5], 2.69 ± 0.46 µM; in assay [6], 6.35 ± 0.05 µM. In assay [3], the “SI: selectivity index” value is on record as 24.45.

As to `O=C(NCCCCCCCCCCNC(=O)c1cnccn1)c1cnccn1` [Compound 16e, N,N′-(Decane-1,10-Diyl)Bis(Pyrazine-2-Carboxamide)], the half-inhibitory concentration (IC50) in assay [1] was over 100 µM; in assay [2], over 100 µM; in assay [3] (setting [7]), 88100 ± 1370 nM; in assay [4], over 100 µM; in assay [5], over 100 µM; in assay [6], over 100 µM.

For `COc1cc(OC)cc(C(=O)NCCCCCCCCCCNC(=O)c2cc(OC)cc(OC)c2)c1` [Compound 33e, N,N′-(Decane-1,10-Diyl)Bis(3,5-Dimethoxybenzamide)], the IC50 in assay [1] was over 20 µM; in assay [2] it was over 20 µM; in assay [3] (setting [7]), 10400 ± 949 nM; in assay [4] it was over 20 µM; in assay [5], over 20 µM; in assay [6] it was over 20 µM. For the same molecule, in assay [3], the “SI: selectivity index” value was over 1.92.

As for `O=C(NCCCCCCCCCCNC(=O)c1ccc2cc[nH]c2c1)c1ccc2cc[nH]c2c1` [Compound 24e, N,N′-(Decane-1,10-Diyl)Bis(1H-Indole-6-Carboxamide)], the IC50 in assay [1] is over 20 µM; in assay [2], over 20 µM; in assay [3] (setting [7]) it was 5300 ± 366 nM; in assay [4] it was over 20 µM; in assay [5] it was over 20 µM; in assay [6], over 20 µM. Besides, the “SI: selectivity index” value in assay [3] is over 3.78.

Consider `Cc1nc(C)c(CN(CCCN(Cc2nc(C)c(C)nc2C)Cc2nc(C)c(C)nc2C)Cc2nc(C)c(C)nc2C)nc1C` [Compound 6b, N^1,N^1,N^3,N^3-Tetrakis((3,5,6-Trimethylpyrazin-2-yl)Methyl)Propane-1,3-Diamine], for which the IC50 in assay [1] was over 100 µM; in assay [2] it was over 100 µM; in assay [3] (setting [7]) it was over 100000 nM; in assay [4], over 100 µM; in assay [5], over 100 µM; in assay [6], over 100 µM.

`O=C(NCCCCCCCCCCNC(=O)c1cc2ccccc2o1)c1cc2ccccc2o1` [Compound 21e, N,N′-(Decane-1,10-Diyl)Bis(Benzofuran-2-Carboxamide)]: the IC50 was over 20 µM in assay [1]; over 20 µM in assay [2]; 697 nM in assay [3] (Homo sapiens, FaDu, values in nM, read-out: IC50 in FaDu cells); under 1000 nM in assay [3] (setting [7]); 665 ± 28 nM in assay [3] (setting [8]); over 20 µM in assay [4]. The IC50 in assay [5] and in assay [6] was over 20 µM each time. Further, the “SI: selectivity index” value in assay [3] is reported as over 30.08.

On to `O=C(/C=C/c1ccccc1)OCCCCCCCCOC(=O)/C=C/c1ccccc1` [Compound 9g, Octane-1,8-Diyl (2E,2′E)-Bis(3-Phenylacrylate)], for which the concentration for half-maximal inhibition (IC50) in assay [1] is over 20 µM; in assay [2], over 20 µM; in assay [3] (setting [7]), over 20000 nM; in assay [4], over 20 µM; in assay [5] it was over 20 µM; in assay [6], over 20 µM.

As to `COc1ccc(/C=C/C(=O)NCCCCCCCCCCNC(=O)/C=C/c2ccc(OC)c(OC)c2)cc1OC` [Compound 27e, (2E,2′E)-N,N′-(Decane-1,10-Diyl)Bis(3-(3,4-Dimethoxyphenyl)Acrylamide)], the IC50 in assay [1] is over 20 µM; in assay [2] it was over 20 µM; in assay [3] (setting [7]), 4620 ± 539 nM; in assay [4] it was over 20 µM; in assay [5], over 20 µM; in assay [6], over 20 µM. Also, in assay [3], the “SI: selectivity index” value is over 4.33.

Regarding `O=C(/C=C/c1ccccc1)NCCOCCOCCOCCNC(=O)/C=C/c1ccccc1` [Compound 9k, (2E,2′E)-N,N′-(((Oxybis(Ethane-2,1-Diyl))Bis(Oxy))Bis(Ethane-2,1-Diyl))Bis(3-Phenylacrylamide)], the IC50 in assay [1] was over 20 µM; in assay [2], over 20 µM; in assay [3] (setting [7]), 4450 ± 208 nM; in assay [4], over 20 µM; in assay [5] it was over 20 µM; in assay [6], over 20 µM. Besides, the “SI: selectivity index” value in assay [3] is over 4.50.

In the case of `Cn1cc(C(=O)NCCCCCCCCCCNC(=O)c2cn(C)c3ccccc23)c2ccccc21` [Compound 23e, N,N′-(Decane-1,10-Diyl)Bis(1-Methyl-1H-Indole-3-Carboxamide)], the concentration for half-maximal inhibition (IC50) was over 20 µM in assay [1]; over 20 µM in assay [2]; under 1000 nM in assay [3] (setting [7]); 638 ± 89 nM in assay [3] (setting [8]); over 20 µM in assay [4]; over 20 µM in assay [5]. Moreover, the IC50 in assay [6] was over 20 µM. Further, in assay [3], the “SI: selectivity index” value is recorded as over 31.35.

As for `O=C(NCCCCCCCCCCNC(=O)c1ccc2nc[nH]c2c1)c1ccc2nc[nH]c2c1` [Compound 19e, N,N′-(Decane-1,10-Diyl)Bis(1H-Benzo[d]Imidazole-6-Carboxamide)], the IC50 is over 20 µM in assay [1]; over 20 µM in assay [2]; 8740 ± 440 nM in assay [3] (setting [7]); over 20 µM in assay [4]; over 20 µM in assay [5]; over 20 µM in assay [6]. Also, in assay [3], the “SI: selectivity index” value is listed as over 2.29.

On to `Cc1nc(C)c(CN(CCO)Cc2nc(C)c(C)nc2C)nc1C` [Compound 6i, 2-(Bis((3,5,6-Trimethylpyrazin-2-yl)Methyl)Amino)Ethanol], for which the IC50 in assay [1] is over 100 µM; in assay [2], over 100 µM; in assay [3] (setting [7]), over 100000 nM; in assay [4], over 100 µM; in assay [5], over 100 µM; in assay [6], over 100 µM.
